What was measured:
lungs of diabetic mice = test: Hyperglycemia-induced pulmonary vascular leakage in diabetic mice (FITC-dextran); format: in vivo, C57BL/6 mice; details: 10 mg/kg midazolam intraperitoneal daily for 2 days (FIG. 21)
Protocol: FIGS. 21A and 21B show the preventive effects of midazolam against hyperglycemia-induced pulmonary vascular leakage in diabetic mice. Six-week-old male C57BL/6 mice were administered with streptozotocin (150 mg/kg body weight) to give diabetic mouse models. Two weeks after streptozotocin injection, diabetic mice were administered 10 mg/kg midazolam by intraperitoneal injection daily for 2 days, and vascular leakage was investigated. The body weight of mice were measure in normal (19.9±0.3 g), diabetic (17.7±0.3 g), and midazolam supplemented diabetic mice (17.6±0.3 g). Blood glucose levels were also monitored in normal (123.5±6.5 mg/dL), diabetic (505.0±89.0 mg/dL), and midazolam supplemented diabetic mice (500.3±63.3 mg/dL). The mice were anesthetized with 3% isoflurane, and 1.25 mg of FITC-dextran was injected into the right ventricle of each mouse and allowed to circulate for 5 min. The lungs were dissected, fixed, and embedded in OCT compound. Cryosections of lungs were stained with isolectin B4 and DAPI. Representative images of vascular leakage in lungs are shown in additional FIG. 21A. Scale bars, 100 μm. The results of vascular leakage quantitatively analyzed by measuring the fluorescence intensity of FITC-dextran in the lungs are shown in additional FIG. 21B (n=4 for normal and diabetic, n=6 for diabetic+Midazolam).

β-catenin = test: Analysis of adherens junction (β-catenin staining); format: cell-based, human; details: HRECs, 10 ng/mL VEGF 90 min with 20 μM midazolam, 5 μM BAPTA-AM, 1 mM NAC, 0.5 μM Trolox, 50 μM cystamine or 20 μM MDC (FIGS. 8, 9)
Protocol: (§1) Purchased from Applied Cell Biology Research Institute (Cell Systems, Kirkland, Wash.), human retinal endothelial cells (HRECs) were cultured in an M19 medium, containing 20% FBS, 3 ng/mL bFGF, 5 U/mL heparin, 100 U/mL penicillin and […], in a 2% gelatin-coated plate.
(§2) Before the following Test Examples 2 to 7, the HRECs were cultured for 6 hr in a medium containing 1% FBS and an antibiotic agent, thus preparing HRECs of Test Example 1.
The HRECs of Test Example 1 were subjected to the respective treatments below and cultured for 30 min. Here, treatment with 10 ng/mL VEGF was performed for 90 min. Thereafter, the HRECs were treated with 1 mM 5-(biotinamido)pentylamine, incubated for 1 hr, fixed with 3.7% formaldehyde, treated with 0.2% triton X-100, treated with a blocking solution containing 138 mM NaCl, 0.1% Tween 20 and 2% BSA dissolved in a 20 mM Tris (pH 7.6) buffer, incubated for 30 min, incubated with a monoclonal β-catenin antibody (1:200; Santa Cruz Biotechnology) for 12 hr or more, incubated with a FITC-conjugated goat anti-mouse antibody, and measured using confocal microscopy. Some (the following i), ii), iii), iv)) of the results are shown in FIG. 8, and the β-catenin concentrations in the portions represented by the dotted lines in FIG. 8 are shown in FIG. 9. With reference to FIG. 9, 10 randomly selected cells were measured to determine the fluorescence intensity of single cells and thus quantify β-catenin.
β-catenin, which is a protein that mediates adherens junction like VE-cadherin, was analyzed to evaluate adherens junction.

TGase = test: Analysis of TGase activity in retinas of diabetic mouse model; format: in vivo, C57BL/6 mice; details: intravitreal 2 μL of 2 mM midazolam, 2 μM cystamine or 500 mM MDC (FIGS. 14, 15)
Protocol: 6-week-old male C57BL/6 mice (DBL, EumSeong, Korea) were administered with streptozotocin (Sigma-Aldrich) dissolved in a 100 mM citrate buffer (pH 4.5) through intraperitoneal injection in an amount of 150 mg each per kg of mouse weight to give diabetic mouse models. In the diabetic mouse models, the blood glucose level was 19 mM or more when not fasting, and polyuria and diabetes, considered signs of diabetes, were observed. […]
48 μL of 100 mM 5-(biotinamido)pentylamine was injected into the left ventricle of each of normal mice (Normal), midazolam-administered normal mice (Midazolam), diabetic mice (Diabetic), midazolam-administered diabetic mice (Diabetic+Midazolam), flumazenil- and midazolam-administered diabetic mice (Diabetic+flumazenil+Midazolam), cystamine-administered diabetic mice (Diabetic+cystamine) and MDC-administered diabetic mice (Diabetic+MDC) and circulated for 10 min, after which cervical dislocation was performed, and the eyeballs were extracted, fixed with 4% paraformaldehyde for 45 min, incised and subjected to permeation treatment for 30 min. The obtained retinal samples were incubated with a blocking solution for 30 min, treated with FITC-conjugated streptavidin (1:200, v/v), stained for 1 hr, and measured using confocal microscopy. […]

[1] = tested on: human retinal endothelial cells (HRECs); test: Analysis of intracellular Ca^2+ (Fluo4-AM, confocal microscopy); format: cell-based
Protocol: as §1, §2
With reference to FIG. 2A, the HRECs of Test Example 1 were subjected to the respective treatments below, stained with 2 μM Fluo4-AM at 37° C. for 30 min and then measured at time intervals of 10 sec using confocal microscopy (FV-300, Olympus, Tokyo, Japan).
With reference to FIG. 2B, the HRECs of Test Example 1 were subjected to the respective treatments below, cultured for 30 min, stained with 2 μM Fluo4-AM at 37° C. for 30 min and then measured at time intervals of 10 sec using confocal microscopy.

Structure (SMILES): Cc1ncc2n1-c1ccc(Cl)cc1C(c1ccccc1F)=NC2 [midazolam]
- pulmonary vascular leakage (FITC-dextran extravasation) (lungs of diabetic mice): blocked by midazolam administration
- β-catenin concentration / adherens junction disruption due to VEGF (β-catenin): exhibited the effect of preventing the adherens junction disruption due to VEGF
- TGase activity in retina compared to normal mice (TGase): an increase in TGase activation was suppressed
- changes in intracellular Ca^2+ (VEGF-induced) ([1]; 10 ng/ml VEGF and 20 μM midazolam together (FIG. 2A)): no significant changes in intracellular Ca^2+
- changes in intracellular Ca^2+ (VEGF-induced, after washing) ([1]; 20 μM midazolam 30 min, washing with serum-free medium, then 10 ng/ml VEGF (FIG. 2A)): intracellular Ca^2+ elevation was caused
- changes in intracellular Ca^2+ ([1]; 20 μM midazolam alone (FIG. 2A)): no significant changes in intracellular Ca^2+
